Assay results from patent publication US8802674B2, “Aminopyrimidine derivatives as LRRK2 modulators” (Genentech, Inc., priority 2011, dated 2014).

What follows are compounds tested against LRRK2 (Homo sapiens (Human), UniProt Q5S007, G2019S) (assay: In Vitro LRRK2 LabChip Assay). Conditions: Table 4.
Format: biochemical
Procedure: In Vitro LRRK2 LabChip Assay
This assay was used to determine a compound's potency in inhibiting activity of LRRK2 by determining, Kiapp, IC50, or percent inhibition values. In a polypropylene plate, LRRK2, fluorescently-labeled peptide substrate, ATP and test compound were incubated together. Using a LabChip 3000 (Caliper Life Sciences), after the reaction the substrate was separated by capillary electrophoresis into two populations: phosphorylated and unphosphorylated. The relative amounts of each were quantitated by fluorescence intensity. LRRK2 Ki was determined according to the equation: Y=V0*(1−((x+Ki*(1+S/Km)+Et)/(2*Et)−(((x+Ki*(1+S/Km)+Et)^2−(4*Et*x))^0.5)/(2*Et))). Ki values in Table 4 and elsewhere herein are shown in μM.
Assay conditions and materials used were as follows:
Compound Plate Preparation:
For serial dilutions, 34.6 μl DMSO was added to columns 3-24. For the assay controls, 37.5 μl DMSO was added to columns 1 and 2 of rows A and P. a,d and 50 μl 25 μM G-028831 (Staurosporine) was added to columns 1 and 2, row B. For the samples: to start at 100 μM, 37.5 μl DMSO was to columns 1 and 2, then 12.5 μl 10 mM compound; to start at 10 μM, 78 μl DMSO was added to columns 1 & 2, then 2 μl 10 mM compound; and to start at 1 μM, 25 μM compound (2 μl 10 mM cmpd+798 μl DMSO) was added to empty columns 1 and 2. A Precision instrument was used to perform 1:3.16 serial dilutions (“PLK_BM_serial_halflog”).
ATP was diluted to 282.1 μM in Complete Kinase Buffer (final concentration was 130 μM).
Total and Blank Preparation:
In Complete Reaction Buffer, substrate was diluted to 4 μM. Equal volumes of Complete Reaction Buffer and 4 μM substrate were combined to obtain the blank. Equal volumes of Complete Reaction Buffer and 4 μM substrate were combined and to the combined solution was added 2× final LRRK2 concentration.
To a 50 μl polypropylene plate, 5 μl/well buffer/substrate was added by hand to Blank wells. A Biomek FX was used to start the kinase reaction (“PLK SAR 23 ATP”). The following were added to the appropriate wells:
5 μl/well compound/ATP in Assay Plate;
5 μl/well kinase/substrate in Assay Plate;
The plate was incubated for 2 hours in the dark. Biomek FX was used to stop the kinase reaction (“PLK Stop”), and 10 μl/well Stop solution was added to the Assay Plate. Results were read on the LabChip 3000.
The LabChip 3000 was run using the job “LRRK2IC50” with the following job settings: […]

Sequence of LRRK2 (Q5S007 970-2527 G2019S limits assumed): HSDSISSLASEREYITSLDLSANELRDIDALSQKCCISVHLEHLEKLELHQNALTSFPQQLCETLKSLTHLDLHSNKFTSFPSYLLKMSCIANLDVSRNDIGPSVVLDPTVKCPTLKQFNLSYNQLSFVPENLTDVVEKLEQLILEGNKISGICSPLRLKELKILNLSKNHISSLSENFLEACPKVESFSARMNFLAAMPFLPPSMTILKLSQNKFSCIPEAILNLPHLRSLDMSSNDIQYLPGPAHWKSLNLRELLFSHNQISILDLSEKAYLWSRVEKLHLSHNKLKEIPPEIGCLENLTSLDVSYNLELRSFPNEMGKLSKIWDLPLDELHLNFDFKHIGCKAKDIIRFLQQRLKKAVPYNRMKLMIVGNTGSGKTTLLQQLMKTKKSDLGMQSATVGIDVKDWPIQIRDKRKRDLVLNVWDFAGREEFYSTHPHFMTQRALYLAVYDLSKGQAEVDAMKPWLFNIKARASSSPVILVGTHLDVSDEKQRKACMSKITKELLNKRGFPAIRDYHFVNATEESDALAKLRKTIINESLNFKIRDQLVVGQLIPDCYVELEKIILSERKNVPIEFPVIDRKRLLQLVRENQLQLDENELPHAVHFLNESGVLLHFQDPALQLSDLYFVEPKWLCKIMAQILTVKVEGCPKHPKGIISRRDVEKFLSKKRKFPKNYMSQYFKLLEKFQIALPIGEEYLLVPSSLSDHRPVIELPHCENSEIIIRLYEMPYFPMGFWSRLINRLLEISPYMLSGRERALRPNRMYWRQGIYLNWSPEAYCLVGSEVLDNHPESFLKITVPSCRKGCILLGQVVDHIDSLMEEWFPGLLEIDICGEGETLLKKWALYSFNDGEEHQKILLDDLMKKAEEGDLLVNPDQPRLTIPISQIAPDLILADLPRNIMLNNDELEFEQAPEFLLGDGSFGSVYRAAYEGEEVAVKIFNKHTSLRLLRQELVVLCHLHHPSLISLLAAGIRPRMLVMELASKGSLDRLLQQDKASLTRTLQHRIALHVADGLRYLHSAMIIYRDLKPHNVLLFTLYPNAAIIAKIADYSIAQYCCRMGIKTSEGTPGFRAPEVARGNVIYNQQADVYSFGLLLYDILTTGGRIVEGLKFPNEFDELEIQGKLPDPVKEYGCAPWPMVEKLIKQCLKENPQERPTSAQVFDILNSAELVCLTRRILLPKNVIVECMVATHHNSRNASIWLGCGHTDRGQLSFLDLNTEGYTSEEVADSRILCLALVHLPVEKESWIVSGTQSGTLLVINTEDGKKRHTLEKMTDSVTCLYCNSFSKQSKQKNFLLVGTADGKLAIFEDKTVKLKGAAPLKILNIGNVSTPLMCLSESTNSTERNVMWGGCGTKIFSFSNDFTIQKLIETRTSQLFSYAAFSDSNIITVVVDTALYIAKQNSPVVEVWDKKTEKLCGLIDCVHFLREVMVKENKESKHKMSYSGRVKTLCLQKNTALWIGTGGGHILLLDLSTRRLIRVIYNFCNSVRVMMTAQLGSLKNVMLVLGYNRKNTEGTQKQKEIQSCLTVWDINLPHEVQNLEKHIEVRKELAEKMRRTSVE

Ki	SMILES
1.5 nM	CNc1nc(Nc2cc(OC)c(C(=O)NC3CCN(C)CC3)cc2Cl)ncc1C(F)(F)F [Example 173, 5-Chloro-2-methoxy-4-(4-methylamino-5-trifluoromethyl-pyrimidin-2-ylamino)-N-(1-methyl-piperidin-4-yl)-benzamide]
4.1 nM	CNc1nc(Nc2cc(OC)c(C(=O)NC3COC3)cc2Cl)ncc1C(F)(F)F [Example 174, 5-Chloro-2-methoxy-4-(4-methylamino-5-trifluoromethyl-pyrimidin-2-ylamino)-N-oxetan-3-yl-benzamide]
7.9 nM	CNc1nc(Nc2cc(OC)c(C(=O)NCC(C)(C)O)cc2Cl)ncc1C(F)(F)F [Example 175, 5-Chloro-N-(2-hydroxy-2-methyl-propyl)-2-methoxy-4-(4-methylamino-5-trifluoromethyl-pyrimidin-2-ylamino)-benzamide]
4.1 nM	CNc1nc(Nc2cc(OC)c(C(=O)N3CCNCC3)cc2Cl)ncc1C(F)(F)F [Example 176, [5-Chloro-2-methoxy-4-(4-methylamino-5-trifluoromethyl-pyrimidin-2-ylamino)-phenyl]-piperazin-1-yl-methanone]
2.9 nM	CNc1nc(Nc2cc(OC)c(C(=O)N3CCC(C#N)C3)cc2Cl)ncc1C(F)(F)F (stereo not drawn) [Example 177, 1-[5-Chloro-2-methoxy-4-(4-methylamino-5-trifluoromethyl-pyrimidin-2-ylamino)-benzoyl]-pyrrolidine-3-carbonitrile]
1.8 nM	CNc1nc(Nc2cc(F)c(C(=O)N3CCC(C#N)C3)cc2OC)ncc1C(F)(F)F (stereo not drawn) [Example 178, l-[2-Fluoro-5-methoxy-4-(4-methylamino-5-trifluoromethyl-pyrimidin-2-ylamino)-benzoyl]-pyrrolidine-3-carbonitrile]
4.7 nM	CNC(=O)c1cc(OC)c(Nc2ncc(C(F)(F)F)c(NC)n2)cc1F [Example 180, 2-Fluoro-5-methoxy-N-methyl-4-(4-methylamino-5-trifluoromethyl-pyrimidin-2-ylamino)-benzamide]
6.3 nM	CNc1nc(Nc2cc(OC)c(C(=O)N(C)CC(C)(C)O)cc2Cl)ncc1C(F)(F)F [Example 181, 5-Chloro-N-(2-hydroxy-2-methyl-propyl)-2-methoxy-N-methyl-4-(4-methylamino-5-trifluoromethyl-pyrimidin-2-ylamino)-benzamide]
89.5 nM	COc1cc(C(=O)N2CCOCC2)ccc1Nc1ncc(C2CC2)c(OC)n1 [Example 182, (4-(5-cyclopropyl-4-methoxypyrimidin-2-ylamino)-3-methoxyphenyl) (morpholino) methanone]

Continued, compound first:

SMILES	Ki
CCNc1nc(Nc2cc(OC)c(C(=O)N3CCOCC3)cc2Cl)ncc1C(F)(F)F [Example 147, [5-Chloro-4-(4-ethylamino-5-trifluoromethyl-pyrimidin-2-ylamino)-2-methoxy-phenyl]-morpholin-4-yl-methanone]	3.4 nM
CCNc1nc(Nc2cc(OC)c(C(=O)NC3CC3)cc2Cl)ncc1C(F)(F)F [Example 148, 5-Chloro-N-cyclopropyl-4-(4-ethylamino-5-trifluoromethyl-pyrimidin-2-ylamino)-2-methoxy-benzamide]	3.5 nM
CCNc1nc(Nc2cc(OC)c(C(=O)NCCOC)cc2Cl)ncc1C(F)(F)F [Example 149, 5-Chloro-4-(4-ethylamino-5-trifluoromethyl-pyrimidin-2-ylamino)-2-methoxy-N-(2-methoxy-ethyl)-benzamide]	9.3 nM
CNc1nc(Nc2cc(OC)c(C(=O)N3CCNCC3)cc2Cl)ncc1Cl [Example 150, [5-Chloro-4-(5-chloro-4-methylamino-pyrimidin-2-ylamino)-2-methoxy-phenyl]-piperazin-1-yl-methanone]	8.9 nM
CNc1nc(Nc2cc(OC)c(C(=O)N3CCC(N(C)C)CC3)cc2Cl)ncc1Cl [Example 151, [5-Chloro-4-(5-chloro-4-methylamino-pyrimidin-2-ylamino)-2-methoxy-phenyl]-(4-dimethylamino-piperidin-1-yl)-methanone]	2.8 nM
CNc1nc(Nc2cc(OC)c(C(=O)N3CCC(O)C3)cc2Cl)ncc1Cl (stereo not drawn) [Example 152, [5-Chloro-4-(5-chloro-4-methylamino-pyrimidin-2-ylamino)-2-methoxy-phenyl]-(3-hydroxy-pyrrolidin-1-yl)-methanone]	8.6 nM
CNc1nc(Nc2cc(OC)c(C(=O)NC3COC3)cc2Cl)ncc1Cl [Example 153, 5-Chloro-4-(5-chloro-4-methylamino-pyrimidin-2-ylamino)-2-methoxy-N-oxetan-3-yl-benzamide]	27.4 nM
CNc1nc(Nc2cc(OC)c(C(=O)NC3CC3)cc2Cl)ncc1C(F)(F)F [Example 154, 5-Chloro-N-cyclopropyl-2-methoxy-4-(4-methylamino-5-trifluoromethyl-pyrimidin-2-ylamino)-benzamide]	5.2 nM
CNc1nc(Nc2cc(OC)c(C(=O)NC3CCN(C)CC3)cc2Cl)ncc1Cl [Example 155, 5-Chloro-4-(5-chloro-4-methylamino-pyrimidin-2-ylamino)-2-methoxy-N-(1-methyl-piperidin-4-yl)-benzamide]	4.5 nM
CNc1nc(Nc2cc(OC)c(C(=O)N3CCCC3)cc2Cl)ncc1Cl [Example 156, [5-Chloro-4-(5-chloro-4-methylamino-pyrimidin-2-ylamino)-2-methoxy-phenyl]-pyrrolidin-1-yl-methanone]	7.4 nM
CNc1nc(Nc2cc(OC)c(C(=O)NC(C)(C)C)cc2Cl)ncc1Cl [Example 157, N-tert-Butyl-5-chloro-4-(5-chloro-4-methylamino-pyrimidin-2-ylamino)-2-methoxy-benzamide]	28.2 nM
CNc1nc(Nc2cc(OC)c(C(=O)N(C)C)cc2Cl)ncc1C(F)(F)F [Example 158, 5-Chloro-2-methoxy-N,N-dimethyl-4-(4-methylamino-5-trifluoromethyl-pyrimidin-2-ylamino)-benzamide]	6.8 nM
CNc1nc(Nc2cc(OC)c(C(=O)N3CCC(O)CC3)cc2Cl)ncc1Cl [Example 161, [5-Chloro-4-(5-chloro-4-methylamino-pyrimidin-2-ylamino)-2-methoxy-phenyl]-(4-hydroxy-piperidin-1-yl)-methanone]	3.6 nM
CNc1nc(Nc2cc(OC)c(C(=O)N3CCOC(CO)C3)cc2Cl)ncc1Cl (stereo not drawn) [Example 162, [5-Chloro-4-(5-chloro-4-methylamino-pyrimidin-2-ylamino)-2-methoxy-phenyl]-(2-hydroxymethyl-morpholin-4-yl)-methanone]	6.9 nM
CNc1nc(Nc2cc(OC)c(C(=O)N(C)CCO)cc2Cl)ncc1Cl [Example 163, 5-Chloro-4-(5-chloro-4-methylamino-pyrimidin-2-ylamino)-N-(2-hydroxy-ethyl)-2-methoxy-N-methyl-benzamide]	7.8 nM
CNc1nc(Nc2cc(OC)c(C(=O)N3CCCOCC3)cc2Cl)ncc1Cl [Example 165, [5-Chloro-4-(5-chloro-4-methylamino-pyrimidin-2-ylamino)-2-methoxy-phenyl]-[1,4]oxazepan-4-yl-methanone]	5.7 nM
CNc1nc(Nc2cc(OC)c(C(=O)N3CCC(C#N)CC3)cc2Cl)ncc1Cl [Example 167, l-[5-Chloro-4-(5-chloro-4-methylamino-pyrimidin-2-ylamino)-2-methoxy-benzoyl]-piperidine-4-carbonitrile]	3.3 nM
CNc1nc(Nc2cc(OC)c(C(=O)N3CC(O)C3)cc2Cl)ncc1Cl [Example 169, [5-Chloro-4-(5-chloro-4-methylamino-pyrimidin-2-ylamino)-2-methoxy-phenyl]-(3-hydroxy-azetidin-1-yl)-methanone]	5.4 nM
CNc1nc(Nc2cc(OC)c(C(=O)NC3(C#N)CC3)cc2Cl)ncc1Cl [Example 170, 5-Chloro-4-(5-chloro-4-methylamino-pyrimidin-2-ylamino)-N-(l-cyano-cyclopropyl)-2-methoxy-benzamide]	13.9 nM
CNc1nc(Nc2cc(OC)c(C(=O)N3CCC(C#N)C3)cc2Cl)ncc1Cl (stereo not drawn) [Example 171, l-[5-Chloro-4-(5-chloro-4-methylamino-pyrimidin-2-ylamino)-2-methoxy-benzoyl]-pyrrolidine-3-carbonitrile]	4.5 nM
CNc1nc(Nc2cc(OC)c(C(=O)N3C[C@@H](C)N[C@@H](C)C3)cc2Cl)ncc1Cl [Example 172, [5-Chloro-4-(5-chloro-4-methylamino-pyrimidin-2-ylamino)-2-methoxy-phenyl]-((3R,5S)-dimethyl-piperazin-1-yl)-methanone]	33.3 nM
